The values below are quoted from earlier work in patent US20160068860A1, “TRANSGENIC PLANTS” (CONSEJO SUPERIOR DE INVESTIGACIONES CIENTIFICAS (CSIC), priority 2013, published 2016).

The term Kd denotes the concentration at which binding is half-saturated.

Bounds are passed on as bounds.

Series [1] addresses monomeric PYR/PYL receptors. The conditions noted are these: read-out: Kd for ABA; cited from earlier work.
Series [2] concerns the target PYR/PYL receptors in the presence of clade A PP2Cs (ternary complexes). The following applies: ternary complexes in the presence of certain clade A PP2Cs; read-out: Kd for ABA; cited from earlier work.
Series [3] has as its target dimeric PYR/PYL receptors. The conditions noted are these: read-out: Kd for ABA; cited from earlier work.

Regarding `CC1=CC(=O)CC(C)(C)[C@@]1(O)/C=C/C(C)=C\C(=O)O` [ABA, abscisic acid], the figures for the Kd in series [1], in series [2] and in series [3] were roughly 1000 nM, 30 to 60 nM and greater than 50 µM, respectively.
